“Also recorded” adds a separate entry of the source.
How the values were obtained:
[1] = system: MC-38 tumor cells; experiment: in vivo tumor growth, immunocompetent C57BL/6 mice engrafted with MC-38 tumor cells; settings: anti-PD-L1 10 mg/kg i.v. once then 5 mg/kg i.p. twice per week; for MC-38 tumor growth in comparison with vehicle treated mice: PFE-360 7.5 mg/kg, Mli-2 10 mg/kg per os twice per day, day zero to day 28
Protocol: (§1) The experiment was carried out with 6-8 weeks female C57BL/6 mice from Janvier Labs. All procedures described in this study have been reviewed and approved by the local ethic committee (CELEAG) and validated by the French Ministry of Research. Mice was hosted in TCS BSL-2 facility by groups of 5 individuals. Mice were allowed to acclimate to the environment for 5 days prior to the beginning of the experiment. During the efficacy study, mice were monitored daily for unexpected signs of distress. Body weight was monitored 3 times a week. Mice with a cumulative clinical score or with a body weight loss >25% were sacrificed.
Mice were injected subcutaneously with 0.5×10^6 MC-38 tumor cells in 50% Matrigel. Tumor cell engraftment was defined as day zero. At day 8, mice were randomized into 4 groups of 10 mice each, according to the tumor volume. Treatments were initiated at day 9, when the average tumor volume reached ˜150 mm3 as follows: • Group 1: vehicle, dose 200 μL twice per day per os, twice per week intraperitoneal and intravenously once at day 8 • Group 2: 7915: dose 300 mg/kg per os administration twice per day. • Group 3: anti PD-L1 (clone 6E11, atezolizumab mouse surrogate): dose 10 mg/kg intravenous injection once at day 8 and dose 5 mg/kg intraperitoneal injection twice per week. • Group 4: 7915+anti-PD-L1 (clone 6E11, atezolizumab mouse surrogate): dose 300 mg/kg per os injection twice per day. Anti PD-L1: dose 10 mg/kg intravenous injection once at day 8 and dose 5 mg/kg intraperitoneal injection twice per week.
7915 (cat. num. HY-18163 from MedChemExpress). LRRK2 inhibitor was administered as free base suspensions in vehicle [1% (w/v) Avicel RC-591 and 0.2% (v/v) polysorbate 80 (Tween 80) in reverse osmosis water].
The aim of this study was to address the in vivo effect on tumor progression of LRRK2 kinase inhibition by using the LRRK2 inhibitor 7915, alone or in combination with anti-PD-L1, in immunocompetent mice engrafted with MC-38 tumor cells. C57BL/6 mice were injected subcutaneously with 0.5×10^6 MC-38 tumor cells. Tumor cell engraftment was defined as day zero. […]

[2] = system: 403 non-mutated kinases; experiment: KINOMEScan in vitro kinase selectivity assay; assay type: binding, human; settings: for number of different kinases whose binding is inhibited by 90% or more: at 0.1 μM, 403 non-mutated kinases; for number of unrelated kinases inhibited to >90%: at lowest concentration to inhibit >90 LRRK2 (0.1 uM)
Protocol: FIG. 10: In vitro kinase selectivity test. […] As a reference, the pan-kinase inhibitor sunitinib was tested.
As a reference, the pan-kinase inhibitor sunitinib was tested.
Kinases other than LRRK2 are herein referred to as unrelated kinases. A selectivity score S can be determined to quantify selectivity, as shown in Example 8. In one embodiment, the selectivity score S(65) of the inhibitor (e.g. the LRRK2 inhibitor) is defined as the ratio of number of kinases inhibited by 65% of binding to their ligand as compared to binding to their ligand without the inhibitor divided by the number of kinases tested. In one embodiment, the selectivity score S(90) of the inhibitor (e.g. the LRRK2 inhibitor) is defined as the ratio of number of kinases inhibited by 90% of binding to their ligand as compared to binding to their ligand without the inhibitor divided by the number of kinases tested. In one embodiment, the selectivity score S(99) of the inhibitor (e.g. the LRRK2 inhibitor) is defined as the ratio of number of kinases inhibited by 99% of binding to their ligand as compared to binding to their ligand without the inhibitor divided by the number of kinases tested. In one embodiment, the selectivity score S is determined for a specified concentration (e.g., 0.1 μM, 1 μM, or 10 μM) of the inhibitor (e.g. the LRRK2 inhibitor). Kinase—ligand binding (and inhibition thereof) can be measured using assays as known in the art and hereinbefore described and as described in Example 8.
(§2) The in vitro kinase selectivity for the tested compounds were determined by running a KINOMEScan® (DiscoverX, CA, USA). […] Selectivity scores S(65), S(90) and S (99) in FIG. 11 are calculated as the ratio of number of non-mutated kinases inhibited by 65%, 90 or 99% divided by the total number of non-mutated kinases tested.

[3] = system: MC-38 tumor cells; experiment: in vivo tumor growth, immuno-deficient NSG mice engrafted with MC-38 tumor cells; parameters: species or system mouse
Protocol: as §1, with “NSG” for “C57BL/6”, “Jackson Laboratory.” for “Janvier Labs.”
Mice were injected subcutaneously with 0.5×10^6 MC-38 tumor cells in 50% Matrigel. Tumor cell engraftment was defined as day zero. At day 9, mice were randomized into 2 groups of 12 mice each, according to the tumor volume. Treatments were initiated at day 10, when the average tumor volume reached ˜150 mm3 as follows: • Group 1: vehicle, dose 200 μL twice per day per os • Group 2: GNE-7915: dose 300 mg/kg per os administration twice per day.
GNE-7915 (cat. num. HY-18163 from MedChemExpress). LRRK2 inhibitor was administered as free base suspensions in vehicle [1% (w/v) Avicel RC-591 and 0.2% (v/v) polysorbate 80 (Tween 80) in reverse osmosis water].
The aim of this study was to address the in vivo effect on tumor progression of LRRK2 kinase inhibition by using the LRRK2 inhibitor GNE-7915, in immuno-deficient mice engrafted with MC-38 tumor cells. NSG mice were injected subcutaneously with 0.5×10^6 MC-38 tumor cells. Tumor cell engraftment was defined as day zero. At day 9, mice were randomized into 2 groups.
Mice were injected subcutaneously with 0.5×10^6 MC-38 tumor cells in 50% Matrigel. Tumor cell engraftment was defined as day zero. At day 9, mice were randomized into 2 groups of 12 mice each, according to the tumor volume.
PFE-360 (cat. num. HY-120085 from MedChemExpress). […] LRRK2 inhibitors were administered as free base suspensions in vehicle [1% (w/v) Avicel RC-591 and 0.2% (v/v) polysorbate 80 (Tween 80) in reverse osmosis water]. […]

[4] = target: LRRK2 (Homo sapiens, UniProt Q5S007); experiment: KINOMEScan in vitro kinase selectivity assay, LRRK2; assay type: binding
Protocol: as §2

[5] = system: OT-1 CD8a T cells; experiment: OT-1 CD8a T cell proliferation upon co-culture with dendritic cells pre-treated with LRRK2 inhibitors; assay type: cell-based, mouse
Protocol: (§3) Cells were stained with anti-mouse H-2Kb/[…] antibody. […] F) FACS evaluation of human MART-1 T cell proliferation, upon co-culture with human cord blood derived dendritic cells pre-treated with the LRRK2 inhibitor LRRK2-IN-1. All the experiments were performed in triplicates.
(§4) Subsequently, we investigate whether the pre-treatment of freshly isolated mouse splenic dendritic cells with increasing concentrations of the compounds can enhance the OT-1 CD8a T cells activation upon co-culture. […] Finally, as for the genetic validation in DC2.4, we challenge the splenic derived dendritic cells treated with the different compounds in a killing assay were we measured the MC38 RFP-OVA cancer cell viability upon 6 days of co-culture with OT-1 CD8a T cells primed by mouse splenic dendritic cells pre-treated with the two LRRK2 inhibitors (FIG. 5-A).

[6] = system: MC38 RFP-OVA cancer cells
Source text: (§5) A, E) Schematic representation of the killing assay experimental setup respectively in mouse and human setting. […] Data are normalized to DMSO treated dendritic cells co-cultured with CD8a T cells. F) Evaluation of MV3 cancer cells viability upon co-cultured with MART-1 T Cells primed by human cord blood derived dendritic cells pre-treated with the LRRK2 inhibitor LRRK2-IN-1. Data are normalized to MV3 cells co-cultured with T cells primed in the absence of MART1 peptide. All the experiments were performed in triplicates.
as §4

[7] = system: DC2.4 SCR cells; experiment: antigen cross-presentation assay on DC2.4 cells (FACS, anti-mouse H-2Kb/[…] antibody); assay type: cell-based; settings: overnight administration
Protocol: as §3, §4

[8] = system: MV3 cancer cells; experiment: killing assay: MV3 viability upon co-culture with MART-1 T cells primed by pre-treated human cord blood derived dendritic cells; assay type: cell-based; settings: 6 days killing assay, increasing concentration, human setting
Source text: as §5, §4

[9] = system: MART-1 T Cells; experiment: MART-1 T cell proliferation upon co-culture with pre-treated human cord blood derived dendritic cells; assay type: cell-based; settings: human MART-1 T cells primed by human cord blood derived dendritic cells, FIG. 4-F
Protocol: as §3, §4

[10] = PFE-360 7.5 mg/kg, Mli-2 10 mg/kg per os twice per day, day zero to day 24

LRRK2, sequence (Q5S007 whole entry): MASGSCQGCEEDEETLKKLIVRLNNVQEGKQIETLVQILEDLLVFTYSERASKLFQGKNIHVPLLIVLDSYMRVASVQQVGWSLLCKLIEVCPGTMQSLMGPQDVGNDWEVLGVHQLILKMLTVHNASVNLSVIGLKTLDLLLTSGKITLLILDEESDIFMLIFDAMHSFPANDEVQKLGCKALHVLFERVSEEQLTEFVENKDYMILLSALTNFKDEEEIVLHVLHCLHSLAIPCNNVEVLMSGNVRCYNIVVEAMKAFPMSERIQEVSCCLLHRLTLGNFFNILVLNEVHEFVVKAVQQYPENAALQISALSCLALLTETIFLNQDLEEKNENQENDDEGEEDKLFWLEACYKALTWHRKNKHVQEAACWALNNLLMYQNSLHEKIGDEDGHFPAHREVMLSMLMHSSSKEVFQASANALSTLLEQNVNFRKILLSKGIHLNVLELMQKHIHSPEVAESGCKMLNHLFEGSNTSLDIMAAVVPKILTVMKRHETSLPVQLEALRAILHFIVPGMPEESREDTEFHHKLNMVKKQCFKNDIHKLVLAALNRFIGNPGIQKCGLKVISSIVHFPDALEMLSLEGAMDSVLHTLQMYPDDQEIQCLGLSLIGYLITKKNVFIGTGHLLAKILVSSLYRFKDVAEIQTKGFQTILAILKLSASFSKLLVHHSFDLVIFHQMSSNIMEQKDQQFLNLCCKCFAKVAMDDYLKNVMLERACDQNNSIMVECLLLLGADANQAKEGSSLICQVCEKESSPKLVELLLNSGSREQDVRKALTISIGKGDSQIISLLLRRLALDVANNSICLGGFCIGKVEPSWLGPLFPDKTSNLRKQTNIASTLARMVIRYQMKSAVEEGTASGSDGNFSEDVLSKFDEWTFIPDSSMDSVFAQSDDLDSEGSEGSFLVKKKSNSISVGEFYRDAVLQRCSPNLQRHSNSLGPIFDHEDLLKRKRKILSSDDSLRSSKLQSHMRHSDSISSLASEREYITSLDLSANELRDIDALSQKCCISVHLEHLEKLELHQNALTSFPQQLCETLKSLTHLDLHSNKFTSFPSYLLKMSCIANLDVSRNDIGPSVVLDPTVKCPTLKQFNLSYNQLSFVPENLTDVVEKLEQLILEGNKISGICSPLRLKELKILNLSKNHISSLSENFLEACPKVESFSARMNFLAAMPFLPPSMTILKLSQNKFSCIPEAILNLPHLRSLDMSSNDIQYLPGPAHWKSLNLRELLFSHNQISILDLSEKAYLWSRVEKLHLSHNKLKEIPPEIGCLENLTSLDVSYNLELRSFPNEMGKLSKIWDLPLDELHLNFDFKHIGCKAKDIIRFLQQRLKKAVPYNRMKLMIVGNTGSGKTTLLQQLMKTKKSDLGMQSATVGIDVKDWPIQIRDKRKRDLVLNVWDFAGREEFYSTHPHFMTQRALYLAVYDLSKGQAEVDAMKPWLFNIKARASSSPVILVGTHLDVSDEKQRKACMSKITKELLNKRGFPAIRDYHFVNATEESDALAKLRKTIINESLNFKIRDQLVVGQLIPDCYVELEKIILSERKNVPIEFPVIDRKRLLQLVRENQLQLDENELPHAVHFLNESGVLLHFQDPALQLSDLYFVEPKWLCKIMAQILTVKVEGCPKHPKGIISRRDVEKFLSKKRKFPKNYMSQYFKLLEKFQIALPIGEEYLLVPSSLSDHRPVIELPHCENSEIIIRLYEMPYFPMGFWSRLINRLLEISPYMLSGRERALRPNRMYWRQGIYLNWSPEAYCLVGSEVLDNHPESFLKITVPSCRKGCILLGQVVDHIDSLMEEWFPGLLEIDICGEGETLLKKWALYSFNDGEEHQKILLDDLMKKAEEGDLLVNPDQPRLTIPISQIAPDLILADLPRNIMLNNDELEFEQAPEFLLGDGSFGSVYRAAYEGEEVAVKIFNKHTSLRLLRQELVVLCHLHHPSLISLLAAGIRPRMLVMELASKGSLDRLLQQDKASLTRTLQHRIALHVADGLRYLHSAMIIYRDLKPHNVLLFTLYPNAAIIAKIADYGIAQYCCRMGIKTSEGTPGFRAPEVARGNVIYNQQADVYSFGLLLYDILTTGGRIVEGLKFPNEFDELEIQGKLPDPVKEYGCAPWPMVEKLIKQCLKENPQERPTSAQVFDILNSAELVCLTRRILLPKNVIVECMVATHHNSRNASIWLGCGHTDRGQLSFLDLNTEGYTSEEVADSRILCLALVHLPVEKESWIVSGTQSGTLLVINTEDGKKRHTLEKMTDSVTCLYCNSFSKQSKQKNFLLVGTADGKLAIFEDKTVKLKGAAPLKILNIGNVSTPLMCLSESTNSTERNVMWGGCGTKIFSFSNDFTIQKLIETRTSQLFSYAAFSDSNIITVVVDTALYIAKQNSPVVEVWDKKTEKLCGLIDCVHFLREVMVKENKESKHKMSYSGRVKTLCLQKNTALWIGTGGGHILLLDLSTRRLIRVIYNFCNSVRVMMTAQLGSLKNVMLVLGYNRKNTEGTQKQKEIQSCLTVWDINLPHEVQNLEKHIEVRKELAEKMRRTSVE

| Compound | MC-38 tumor growth in comparison with vehicle treated mice [1] | number of different kinases whose binding is inhibited by 90% or more [2] | number of unrelated kinases inhibited to >90% [2] | MC-38 tumor growth in comparison with vehicle treated mice [3, 10] | inhibition at 0.1 µM [4] [%] | T cell mediated cytotoxicity (MC38 RFP-OVA cancer cell viability) [6] | also measured |
| --- | --- | --- | --- | --- | --- | --- | --- |
| Cn1cc(-c2c[nH]c3ncnc(N4CCOCC4)c23)cc1C#N [PFE-360, 1-methyl-4-(4-morpholino-7H-pyrrolo[2,3-d]pyrimidin-5-yl)pyrrole-2-carbonitrile] | inducing tumor growth inhibition; also recorded: significantly decrease MC-38 tumor growth | 9 | 9 | not modifying tumor growth; also recorded: not impacting MC-38 tumor growth | 100 | – | fold more selective than sunitinib ([2]; at all concentration on average): ~2 fold |
| CNc1nc(Nc2cnn(C3CCN(C4COC4)CC3F)c2Cl)ncc1C(F)(F)F (stereo not drawn) [compound 9605, N2-[5-chloro-1-[3-fluoro-1-(oxetan-3-yl)-4-piperidyl]pyrazol-4-yl]-N4-methyl-5-(trifluoromethyl)pyrimidine-2,4-diamine] | – | – | – | – | – | increased T cell mediated cytotoxicity | concentration at which increased T cell proliferation is shown ([5]; OT-1 CD8a T cells co-cultured with pre-treated mouse splenic dendritic cells): ≥ 100 nM |
| COc1cc(C(=O)N2CCC(N3CCN(C)CC3)CC2)ccc1Nc1ncc2c(n1)N(C)c1ccccc1C(=O)N2C [LRRK2-IN-1, 2-[2-methoxy-4-[4-(4-methylpiperazin-1-yl)piperidine-1-carbonyl]anilino]-5,11-dimethyl-pyrimido[4,5-b][1,4]benzodiazepin-6-one] | – | – | – | – | – | – | concentration showing an effect on antigen cross-presentation [7]: 1 µM; MV3 cancer cell viability [8]: dose dependent reduction of MV3 cancer cell viability; cross-presentation mediated T cell proliferation [9]: already at lowest concentration a stable increase; also recorded: increased the T cells proliferation |
| CCN(CC)CCNC(=O)c1c(C)[nH]c(/C=C2\C(=O)Nc3ccc(F)cc32)c1C [sunitinib] | – | – | – | – | < 50 | – | – |
| CCNc1nc(Nc2cc(F)c(C(=O)N3CCOCC3)cc2OC)ncc1C(F)(F)F [compound 7915, [4-[[4-(ethylamino)-5-(trifluoromethyl)pyrimidin-2-yl]amino]-2-fluoro-5-methoxy-phenyl]-morpholino-methanone] | – | – | – | – | – | increased T cell mediated cytotoxicity | tumor growth inhibition ([1]; MC-38, vs vehicle, 7915 300 mg/kg per os twice per day, day zero to day 15): 82%; cross-presentation mediated T cell proliferation ([5]; murine OT1 CD8a T cells, FIG. 4-H): already at lowest concentration a stable increase; MC-38 tumor growth in comparison with vehicle treated mice ([3]; GNE-7915 300 mg/kg per os twice per day, day zero to day 21, 300 mg/kg): not modifying tumor growth; also recorded: not impacting MC-38 tumor growth |
| C[C@@H]1CN(c2cc(-c3n[nH]c4ccc(OC5(C)CC5)cc34)ncn2)C[C@H](C)O1 [MLi-2, cis-2,6-dimethyl-4-[6-[5-(1-methylcyclopropoxy)-1H-indazol-3-yl]pyrimidin-4-yl]morpholine] | inducing tumor growth inhibition; also recorded: significantly decrease MC-38 tumor growth | three | 3 | not modifying tumor growth; also recorded: not impacting MC-38 tumor growth | – | increased T cell mediated cytotoxicity | – |
